{"source": "patent US20130030006A1", "about": "“AGENT FOR PREVENTING OR TREATING DISEASES ACCOMPANIED BY URINARY PAIN” (priority 2010, published 2013)", "key": {"[1]": {"test_system": "rat model with bladder pain", "assay": "Rat model with bladder pain (cyclophosphamide pre-treated, bladder expansion)", "format": "in vivo", "description": "Action of Compound with Respect to Rat Model with Bladder Pain\nThe analgesic action of the compound against bladder pain was examined using a pathological model. Cyclophosphamide (150 mg/kg) was administered intraperitoneally, and after two days, physiological saline was injected under a non-restraint condition, at a rate of 45 ml/h via a cannula inserted transurethrally into the bladder, thereby rapidly expanding the bladder. Due to rapid expansion of the bladder, amplification of electromyogram spikes in external oblique abdominal muscle accompanying behavior relating to pain was confirmed. The injection amount at this point in time can be taken as a threshold of bladder pain, which makes it possible to evaluate drug efficacy with respect to the threshold of bladder pain. […] For the rats pre-treated with cyclophosphamide, the threshold of bladder pain before and after the administration of a test compound was measured, and the change in amount (Δ ml) was investigated. In order to obtain a value before administration, bladder expansion was performed until a stabilized threshold of bladder pain was consecutively obtained three times, and the average of the threshold of bladder pain of the final three times was taken as a measured value. […] The average of the threshold of bladder pain consecutively measured three times was taken as a value measured after administration."}, "[2]": {"test_system": "rat model with testis pain", "assay": "Rat model with testis pain (acetic acid into testes, writhing)", "format": "in vivo", "description": "Action of Compound with Respect to Rat Model with Testis Pain\nThe analgesic action of the compound against testis pain was examined using a pathological model. If 1% acetic acid is administered at 1 ml/kg to right and left testes of a rat by using an injection needle, pain behavior (writhing) accompanied by testis pain is observed, which makes it possible to evaluate drug efficacy on the pain behavior. […] The rats were transferred to a cylindrical acryl cage having a diameter of 30 cm and a height of 50 cm, and the number of times of pain behavior shown for 5 minutes to 15 minutes after the acetic acid administration was measured."}, "FAAH": {"molecular_target": "T1, FAAH (Homo sapiens, UniProt O00519)", "T1 construct": "Human bladder epithelial carcinoma-derived cell line, 5637 cells (HTB-9; host or cells: 5637 human bladder epithelial carcinoma cells", "T1 sequence (O00519 1-579)": "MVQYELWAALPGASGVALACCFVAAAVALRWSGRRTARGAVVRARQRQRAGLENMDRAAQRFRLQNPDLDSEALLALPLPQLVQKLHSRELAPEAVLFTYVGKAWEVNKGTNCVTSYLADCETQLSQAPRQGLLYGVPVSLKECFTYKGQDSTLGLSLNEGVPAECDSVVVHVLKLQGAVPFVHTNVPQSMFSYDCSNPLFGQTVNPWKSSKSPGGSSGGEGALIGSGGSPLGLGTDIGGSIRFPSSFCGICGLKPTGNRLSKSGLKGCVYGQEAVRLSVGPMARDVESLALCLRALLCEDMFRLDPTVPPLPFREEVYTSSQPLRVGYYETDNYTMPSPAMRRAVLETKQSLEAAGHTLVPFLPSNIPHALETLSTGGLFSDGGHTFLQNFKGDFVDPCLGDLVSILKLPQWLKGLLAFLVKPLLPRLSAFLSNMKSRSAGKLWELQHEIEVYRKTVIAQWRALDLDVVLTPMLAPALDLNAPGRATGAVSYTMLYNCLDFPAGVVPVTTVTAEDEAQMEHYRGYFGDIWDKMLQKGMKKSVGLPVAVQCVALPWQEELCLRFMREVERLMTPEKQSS", "assay": "Measurement of IC50 value of substance inhibiting FAAH activity using human bladder epithelial carcinoma-derived cell line 5637", "format": "cell-based", "description": "Screening of Substance Inhibiting FAAH Activity by Using Human Bladder Epithelial Carcinoma-Derived Cell Line\n(1) Screening of Substance Inhibiting FAAH Activity\nHuman bladder epithelial carcinoma-derived cell line, 5637 cells (HTB-9; ATCC) were seeded in a 48-well cell culture plate in an amount of 1×10^5 cells/well by using RPMI 1640 medium (Invitrogen) containing 10% fetal bovine serum (HyClone), followed by incubation at 37° C. for 12 hours or longer, and then the cells in each well were washed with 400 μl of a buffer (Hank's Balanced Salt Solution, 20 mM Hepes-NaOH (pH 7.4)). A test substance dissolved in DMSO was added to a substrate solution (the above buffer containing 3 μCi/ml radiolabeled anandamide (anandamide [ethanolamine 1-^3H]) and 10 μM anandamide) so as to have a concentration from 0.003 nM to 30 nM, and as a control, DMSO was added alone. 100 μl/well of the substrate solution was added to the cells, followed by incubation in a CO2 incubator at 37° C. for 30 minutes. […] A substance decreasing a measured value compared to the control was selected as a substance inhibiting FAAH activity. […]"}}, "note": "pIC50: −log10 of the molar value.", "data": [{"smiles": "O=C(Nc1ccccc1)C1CCN(C(=O)Oc2cccnc2)CC1", "note": "[Compound L, pyridin-3-yl 4-(anilinocarbonyl)piperidine-1-carboxylate]", "values": [{"measurement": "Threshold of bladder pain (amount of physiological saline injected), compound-administered group", "setting": "[1]; male SD rats, 3 mg/5 ml/kg oral, 120 minutes before measurement, change before vs after administration", "value": "0.173 Δ ml"}, {"measurement": "Number of times of pain behavior, compound-administered group", "setting": "[2]; male Wistar rats, 3 mg/5 ml/kg oral, 120 minutes before measurement, counted 5 to 15 minutes after acetic acid", "value": 6.7}]}, {"smiles": "NC(=O)c1cncc(OC(=O)N2CCC(CCc3cccc(C(=O)N4CCCC4)c3)CC2)c1", "note": "[Compound J, 5-(aminocarbonyl)pyridin-3-yl 4-{2-[3-(pyrrolidin-1-ylcarbonyl)phenyl]ethyl}piperidine-1-carboxylate]", "values": [{"measurement": "Threshold of bladder pain (amount of physiological saline injected), compound-administered group", "setting": "[1]; rat, in vivo, po", "value": "0.150 Δ ml"}, {"measurement": "Number of times of pain behavior, compound-administered group", "setting": "[2]; rat, in vivo, po", "value": 9.5}]}, {"smiles": "NC(=O)c1cncc(OC(=O)N2CCC(CCc3cccc(C(=O)N4CCCCC4)c3)CC2)c1", "note": "[Compound I, 5-(aminocarbonyl)pyridin-3-yl 4-{2-[3-(piperidin-1-ylcarbonyl)phenyl]ethyl}piperidine-1-carboxylate]", "values": [{"measurement": "pIC50", "setting": "FAAH", "value": 9.80}]}]}
